Entries after “also recorded” stand apart in the source; their conditions may differ.
Legend:
[1] = test system: HUVECs; experiment: Inhibition of C-peptide-induced tube formation by HUVECs; type: cell-based, human; conditions: 0.5 nM C-peptide, 24-30 h
Procedure: FIG. 4A is a graph in which tube formation is quantified by confocal microscopy and results are represented as mean±S.D. from three independent experiments after HUVECs were seeded onto a Matrigel layer and incubated for 24-30 h with 0.5 nM C-peptide (C-pep) in the presence of the indicated concentrations of L-NAME, PD98058, and wortmannin, and
(§1) The formation of capillary-like networks by HUVECs on growth factor-reduced Matrigel (BD Biosciences, Franklin Lakes, N.J.) was achieved using a method known in the art. Briefly, 24-well culture plates were coated with Matrigel according to the manufacturer's instructions. HUVECs were seeded onto a layer of Matrigel at a density of 4×10^5 cells/well, and treated with VEGF or C-peptide at 37° C. for 24 to 30 h. The degree of tube formation was quantified by measuring the length of tubes from the images using the FV-300 software.
(§2) The roles of ERK1/2, PI3K/Akt, and NO in C-peptide-induced angiogenesis were examined using PD98059, wortmannin, and L-NG-nitroarginine methyl ester (L-NAME), respectively.

[2] = test system: HUVECs; experiment: Inhibition of VEGF-induced tube formation by HUVECs; type: cell-based, human; conditions: 10 ng/ml VEGF, 24-30 h
Procedure: FIG. 4B is a graph in which tube formation is quantified by confocal microscopy and results are represented as mean±S.D. from three independent experiments after HUVECs were seeded onto a Matrigel layer and incubated for 24-30 h with 10 ng/ml VEGF in the presence of the indicated concentrations of L-NAME, PD98058, and wortmannin.
as §1, §2

[3] = test system: HUVECs; experiment: Tube formation assay on Matrigel; type: cell-based, human; conditions: 24 to 30 h; for formation of capillary-like networks (tube formation): VEGF 10 ng/ml
Procedure: To examine whether C-peptide can activate angiogenesis in vitro, a tube formation assay was conducted in a Matrigel layer using HUVECs.
as §1

[4] = test system: HUVECs; experiment: Wound healing (scratch) assay (HUVECs); type: cell-based, human; conditions: 24 h, C-peptide 0.5 nM, VEGF 10 ng/ml, p<0.01
Procedure: (§3) HUVECs and NIH3T3 cells were cultured on 6-well culture plates coated with gelatin. After being obtained, confluent cell layers were starved with low-serum media for 6 h, stained with 1 μM calcein-AM for 30 min, and wounded with a plastic scraper. Low-serum media and cell debris were removed, followed by replenishing the cell culture with 2 ml of low-serum media containing VEGF or C-peptide. Cells were then incubated at 37° C. for 24 h. Migrated cells was counted from images obtained using a confocal microscope (FV-300, Olympus).

[5] = test system: NIH3T3 cells; experiment: Transwell migration assay (NIH3T3 fibroblasts); type: cell-based; conditions: 12 h; for chemotactic migration of fibroblast cells: FGF-2 1 ng/ml
Procedure: NIH3T3 fibroblasts obtained from ATCC (American Type Culture Collection) were grown in a DMEM medium supplemented with 10% calf serum, 100 U/ml penicillin, and 100 μg/ml streptomycin.
NIH3T3 cells were serum starved for 12 hrs in a low-serum medium (DMEM supplemented as above, but with only 0.1% calf serum).
(§4) Angiogenesis is accompanied by endothelial cell migration and capillary-like network formation. To evaluate the ability of C-peptide to induce angiogenesis by examining whether C-peptide stimulates endothelial cell migration, the chemotactic motility of HUVECs and NIH3T3 cells were assayed using TRANSWELL® Permeable Supports (Costar, Corning, N.Y.).
(§5) In detail, the lower surface of the filters was coated with 5 μl of 2% gelatin. Low-serum media containing VEGF, FGF-2 or C-peptide were placed in the lower wells. HUVECs or NIH3T3 cells were seeded at a density of 1×10^5 cells per 200 μl of the low-serum medium in each of the upper wells, and incubated at 37° C. for 12 h. Cells were fixed with 100% methanol for 15 min, stained with hematoxylin and eosin, and dried. The average number of migrated cells in three randomly chosen fields of view per insert was taken to quantify the extent of migration using a fluorescence inverted microscope (Olympus).
To elucidate the role of C-peptide in the migration of chemotactic fibroblast cells, NIH3T3 cells were treated with C-peptide for 12 h.

[6] = Hair follicle regeneration and blood vessel formation around wound (whole-mount PECAM-1 immunostaining); type: in vivo; conditions: diabetic mice + C-peptide vs diabetic mice, 14 days after wounding
Procedure: The effect of C-peptide on the regeneration of hair follicles and the formation of blood vessels was observed by whole-mount immunostaining. In this regard, 14 days after wounding, mice were sacrificed, and the dorsal skin was removed for observation of hair follicles and blood vessels. Skin tissues from all the dead mice were excised using a scissor in order to avoid damaging its healing edge, fixed immediately in 4% paraformaldehyde in PBS overnight, and stored overnight in methanol at −20° C. For immunohistochemistry, tissue samples were blocked with 2% BSA in 0.1% TritonX-100 in TBS, and incubated with goat-polyclonal platelet endothelial cell adhesion molecule-I antibody for 2 d, followed by probing with Alexa-546-conjugated rabbit anti-goat IgG and then confocal microscopy.

[7] = Cutaneous wound healing in streptozotocin-induced diabetic mice; type: in vivo
Procedure: (§6) Male C57BL/6 mice, six weeks old, were purchased from Nara Biotech (Seoul, Korea). The mice were maintained in temperature-controlled clean racks with a 12-h light/dark cycle. All experiments were performed in accordance with the guidelines of the Institutional Animal Care and Use Ethics Committee of Kangwon National University.
Diabetic mice were generated by single intraperitoneal injection of a 100 mM citrate buffer (pH 4.5) containing streptozotocin in (150 mg/kg body weight). After injection, mice were supplied overnight with 10% sucrose to prevent sudden hypoglycemic shock. Sufficient hyperglycemia was observed two days after injection, as measured for blood glucose by the Accu-Check Active blood glucose monitor (Roch Diagnostics, Germany) and for glucosurea by Uriscan (TD Diagnostics, Young-In, Korea). After 1 week, mice with non-fasting blood glucose levels greater than 16 mM, polyuria, and glucosuria were defined diabetic and used for experiment. […]
The dorsal skin of the vertebral column was shaved with Veet cream before creating a wound. Full-thickness skin wounds, 4 mm in diameter, were created on the dorsal surface of the hind limbs with a biopsy punch, and closure was monitored with a digital camera. Open wound size was measured by tracing the wound margin using vernier calipers at regular intervals of two days, and monitored with a digital camera. […]

[8] = test system: ERK1/2; experiment: ERK1/2 phosphorylation by Western blot in HUVECs; type: cell-based, human; conditions: for ERK1/2 phosphorylation: 0.5 nM C-peptide or 10 ng/ml VEGF, time-dependent
Procedure: (§7) Since the activation of ERK1/2 and Akt is critical for the induction of cell migration and tube formation, an examination was made of the effect of C-peptide on ERK1/2 and AKT phosphorylation in HUVECs.
(§8) Phosphorylation of ERK1/2 and Akt was determined by Western blot analyses. Briefly, HUVECs were scraped off with ice-cold lysis buffer (50 mM Tris-HCl, pH 7.5, 1% Triton X-100, 150 mM NaCl, 1 mM EDTA, 0.1 mM PMSF, 10 μg/mL aprotinin, and 10 μg/mL leupeptin) and centrifuged at 18,000 g for 10 min at 4° C. The resulting cell lysates were separated by SDS-PAGE and transferred to polyvinylidene fluoride membranes.
(§9) Protein bands were visualized by exposure to X-ray films and a chemiluminescent substrate (Pierce, Rockford, Ill.). Levels of protein phosphorylation were normalized using the total amount of the proteins, and are expressed relative to unstimulated control levels (CON) in FIGS. 3A and 3B.

[9] = test system: HUVECs; experiment: Transwell migration assay (HUVECs); type: cell-based, human; conditions: 12 h; for chemotactic migration of endothelial cells: VEGF 10 ng/ml
Procedure: HUVECs were isolated from the human umbilical cord vein according to a well known process, and cells from passages 3 to 6 were used in the following experiments. Cells were inoculated into M199 culture media (supplemented with 20% FBS, 3 ng/ml bFGF, 5 U/ml heparin, 100 U/ml penicillin, and 100 μg/ml streptomycin) in 2% gelatin-coated coverslips, dishes, or plates, and grown at 37° C. in a humidified 5% CO2 incubator.
For experiments, cells were serum starved for 6 h by incubation in low-serum medium (M199 supplemented as above, but with only 1% FBS), and treated for a suitable time with 10 ng/ml VEGF in the presence or absence of various concentrations of C-peptide.
as §4, §5

[10] = test system: NIH3T3 cells; experiment: Wound healing (scratch) assay (NIH3T3 fibroblasts); type: cell-based; conditions: NIH3T3, 24 h; C-peptide 0.5 nM, FGF-2 1 ng/ml; p<0.01
Procedure: as §3
C-peptide-induced cell migration was further investigated by the wound-healing assay. […] FGF-2 also stimulated chemotactic migration and wound healing in fibroblast cells (p<0.01; FIG. 6).

[11] = test system: NO; experiment: Intracellular NO production (DAF-FM DA, confocal microscopy) in HUVECs; type: cell-based, human; conditions: 2 h, 0.5 nM C-peptide (p<0.05) or 10 ng/ml VEGF (p<0.01)
Procedure: Since phosphorylation of Akt increases NO production by VEGF, which is the important factor mediating angiogenesis, an examination was made to see whether C-peptide can stimulate NO production. For this, intracellular NO levels were measured using DAF-FM DA (diaminofluorescein-FM diacetate, Molecular Probes, Eugene, Oreg.) according to a method known in the art.
Briefly, HUVECs were treated with VEGF or C-peptide in phenol red-free low-serum media for indicated times and incubated with 2 μM DAF-FM DA for the final 1 h. Thereafter, the cells were washed with low-serum media before confocal microscropy. Levels of intracellular NO were determined by comparing the fluorescence intensities of treated cells with those of untreated control cells and expressing them as fold differences.

[12] = test system: Akt; experiment: Akt phosphorylation by Western blot in HUVECs; type: cell-based, human; conditions: for Akt phosphorylation: 0.5 nM C-peptide or 10 ng/ml VEGF, time-dependent
Procedure: as §7, §8, §9

[13] = In vivo Matrigel plug assay; conditions: mice, s.c. 0.5 ml Matrigel with 5 nM C-peptide or 100 ng/ml VEGF, 7 days, compared with control
Procedure: as §6
A matrigel plug assay was used to examine whether C-peptide can induce angiogenesis in vivo. In this regard, in vivo Matrigel plug assays were performed according to a method known in the art.
Briefly, mice were injected subcutaneously with 0.5 ml of Matrigel containing 100 ng/ml VEGF or 5 nM C-peptide, and 10 U heparin. After 7 days, the Matrigel plugs were removed from the subcutaneous region, and photographed using a camera (Sony, Japan).

Molecule | inhibition of C-peptide-stimulated tube formation [1] | effect on VEGF-induced tube formation [2] | formation of capillary-like networks (tube formation) [3] | cell migration to the wounded area [4] | chemotactic migration of fibroblast cells [5] | ERK1/2 phosphorylation [8] | chemotactic migration of endothelial cells [9] | cell migration to the wounded area (fibroblasts) [10] | level of intracellular NO [11] | Akt phosphorylation [12] | new blood vessel formation in Matrigel plug [13] | also measured
COC(=O)[C@@H](N)CCCNC(=N)N[N+](=O)[O-] [L-NAME, L-NG-nitroarginine methyl ester] | dose-dependent inhibition | prevented |  |  |  |  |  |  |  |  |  | 
COc1cccc(-c2cc(=O)c3ccccc3o2)c1N [PD98059] | inhibited | prevented |  |  |  |  |  |  |  |  |  | concentration of maximal inhibition of C-peptide-stimulated tube formation [1]: 10 µM
C-peptide |  |  | stimulated | significantly stimulated | dose-dependent increase | increased | dose-dependent increase | significantly stimulated | significantly elevated | induced | significantly higher induction | concentration of maximal effect on formation of capillary-like networks [3]: 0.5 nM; concentration of maximal effect on chemotactic migration of fibroblast cells [5]: 1 nM; regeneration (number) of hair follicles around wound [6]: significant increase; also recorded: increased; formation (number) of blood vessels around wound ([6]; PECAM-1 staining): significant increase; also recorded: increased; wound area versus normal mice ([7]; STZ-diabetic mice, C-peptide 35 pmol/kg/min s.c. osmotic pump, 4 mm wound, 4 and 10 days after skin injury): no significant differences; wound closure compared with diabetic mice ([7]; diabetic mice + C-peptide vs diabetic mice): accelerated; ERK1/2 activation maintained until ([8]; 0.5 nM C-peptide): 60 min; time of maximal stimulation of ERK1/2 phosphorylation ([8]; 0.5 nM C-peptide): 15 min; concentration of maximal effect on chemotactic migration of endothelial cells [9]: 0.5 nM; time of maximal effect on Akt phosphorylation ([12]; 0.5 nM C-peptide): 15 min
FGF-2: growth factor used as comparator for fibroblast migration [reference compound] |  |  |  |  | stimulated |  |  | stimulated |  |  |  | 
vascular endothelial growth factor [VEGF, reference compound] |  |  | induced | stimulated |  | induced | stimulated |  | higher level | induced | similar | 

Source: patent US9119816B2, “Method for prevention or treatment of diabetic angiogenesis impairment using C-peptide” (KANGWON NATIONAL UNIVERSITY UNIVERSITY-INDUSTRY COOPERATION …, priority 2012, dated 2015)
